According to patent publication US20230151034A1 (COCRYSTAL PHARMA, INC., priority 2020, published 2023):

Target: SARS2 protease (Severe acute respiratory syndrome coronavirus 2, UniProt P0DTD1)
Assay: SARS-CoV-2 protease inhibition assay (SARS2 FRET protease assay)
Assay type: biochemical
Conditions: not given
Description: Viral protease assays: The antiviral activities of inhibitors were determined by FRET (Fluorescence Resonance Energy Transfer) assay. Purified viral protease was incubated with the protease substrate peptide (Edans-DFHLQ/GP-Dabcyl) and inhibitor, and IC50 values were subsequently determined by the fluorescence signals.
The SARS2 FRET protease assay was performed in 20 mM HEPES-Na pH 7, 120 mM NaCl, 0.4 mM EDTA, 0.01% Triton, 5% glycerol, and 4 mM DTT. A self-quenching peptide substrate 5-FAM-TSA VLQ SGF RKK (5TAMRA)-NH2 was custom synthesized by Anaspec. Compounds were diluted in 3-fold serial dilutions to final concentrations of 20 μM to 1.0 nM. SARS2 protease was added to a final concentration of 25 nM, depending on the enzyme activity level, and the peptide substrate was added to a final concentration of 1.3 μM. The assay was incubated 30 minutes at 30° C. and read in a Perkin Elmer Envision with excitation at 473 nm and emission measurement at 519 nm.

| SMILES | IC50 |
| --- | --- |
| CCCCCCCC1CCC/C=C/CC2(CCNC2=O)C[C@@H]([C@H](O)P(=O)(OCC)OCC)NC(=O)[C@H](CC(C)C)NC1=O (stereo partly drawn) [Compound B22, Diethyl ((1R)-((7S,10S,E)-13-heptyl-10-isobutyl-1,9,12-trioxo-2,8,11-triazaspiro[4.14]nonadec-17-en-7-yl)(hydroxy)methyl)phosphonate] | > 200 µM |

Same assay, conditions: Table E; SARS-CoV-2 protease inhibition; read-out: IC50

| SMILES | IC50 |
| --- | --- |
| CON(C)C(=O)[C@H](CCC(=O)N(C)CC(C)c1ccccc1)NC(=O)[C@H](CC1CCCCC1)NC(=O)OCc1cccc(Cl)c1 (stereo in doubt) [Compound A35, 3-chlorobenzyl ((2S)-3-cyclohexyl-1-(((2S)-1-(methoxy(methyl)amino)-5-(methyl(2-phenylpropyl)amino)-1,5-dioxopentan-2-yl)amino)-1-oxopropan-2-yl)carbamate] | > 200 µM |
| CCNC(=O)OCCN(C)C(=O)CC[C@H](NC(=O)[C@H](CC1CCCCC1)NC(=O)OCc1cccc(Cl)c1)C(O)P(=O)(OCC)OCC (stereo partly drawn) [Compound A28, 3-Chlorobenzyl ((12S,15S)-16-cyclohexyl-12-((diethoxyphosphoryl)(hydroxy)methyl)-8-methyl-4,9,14-trioxo-5-oxa-3,8,13-triazahexadecan-15-yl)carbamate] | > 200 µM |
| CON(C)C(=O)[C@H](CCC(=O)N(C)CCc1ccc(Cl)cc1)NC(=O)[C@H](CC1CCCCC1)NC(=O)OCc1cccc(Cl)c1 (stereo in doubt) [Compound A41, 3-Chlorobenzyl ((S)-1-(((S)-5-((4-chlorophenethyl)(methyl)amino)-1-(methoxy(methyl)amino)-1,5-dioxopentan-2-yl)amino)-3-cyclohexyl-1-oxopropan-2-yl)carbamate] | 30 µM |
| CCCCCCCC1CC/C=C\CC(C(=O)NC)C[C@@H](CO)NC(=O)[C@H](CC(C)C)NC1=O (stereo partly drawn) [Compound B65, (2S,5S,Z)-13-heptyl-5-(hydroxymethyl)-2-isobutyl-N-methyl-3,14-dioxo-1,4-diazacyclotetradec-9-ene-7-carboxamide] | > 200 µM |
| CCCCCCCC1CCCCCCCC(C(=O)N(C)C)CC(C=O)NC(=O)[C@H](CC(C)C)NC1=O (stereo in doubt) [Compound B17, (2S,5S)-5-formyl-15-heptyl-2-isobutyl-N,N-dimethyl-3,16-dioxo-1,4-diazacyclohexadecane-7-carboxamide] | > 200 µM |
| CON(C)C(=O)[C@H](CC(C)C(=O)N(C)CCc1ccccc1)NC(=O)[C@H](CC1CCCCC1)NC(=O)OCc1cccc(Cl)c1 (stereo in doubt) [Compound A37, 3-Chlorobenzyl ((2S)-3-cyclohexyl-1-(((2S)-1-(methoxy (methyl)amino)-4-methyl-5-(methyl (phenethyl)amino)-1,5-dioxopentan-2-yl)amino)-1-oxopropan-2-yl) carbamate] | > 200 µM |
| CON(C)C(=O)[C@H](CCC(=O)N(C)CCc1cccc(Cl)c1)NC(=O)[C@H](CC1CCCCC1)NC(=O)OCc1cccc(Cl)c1 [Compound A23] | > 200 µM |
| CCCCCCCC1CC/C=C/CC(C(=O)NC)C[C@@H](C(=O)N(C)OC)NC(=O)[C@H](CC(C)C)NC(=O)O1 (stereo partly drawn) [Compound B64, (4S,7S,E)-15-heptyl-4-isobutyl-N^7-methoxy-N^7,N^9-dimethyl-2,5-dioxo-1-oxa-3,6-diazacyclopentadec-11-ene-7,9-dicarboxamide] | > 200 µM |
| CCNC(=O)NCCN(C)C(=O)CC[C@@H](CO)NC(=O)[C@H](CC1CCCCC1)NC(=O)OCc1cccc(Cl)c1 [Compound A100, 3-Chlorobenzyl ((12S,15S)-16-cyclohexyl-12-(hydroxymethyl)-8-methyl-4,9,14-trioxo-3,5,8,13-tetraazahexadecan-15-yl)carbamate] | > 200 µM |
| CCCCCCCC1CCC/C=C/CC(C(=O)N(C)C)CC(C(=O)N(C)OC)NC(=O)[C@H](CC(C)C)NC(=O)O1 (stereo in doubt) [Compound B13, (4S,7S,E)-16-Heptyl-4-isobutyl-N^7-methoxy-N^7,N^9,N^9-trimethyl-2,5-dioxo-1-oxa-3,6-diazacyclohexadec-11-ene-7,9-dicarboxamide] | > 200 µM |
